By EC50 is commonly meant the midpoint of the concentration-response curve.

One assay concerns CD8+ T-cells. Put plainly: Immunostimulation assay with anti-CD3/28 stimulated T-cells, CD69 expression by flow cytometry. It is filed as cell-based, human. The conditions noted are these: T-cell; purified human CD4+ and CD8+ T-cells, 1 µg/ml anti-CD3, 1 µg/ml anti-CD28, 16 hours, surface FACS; read-out: EC50 CD8+. An outline of the steps:
(§1)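 Human CD4+/CD8+ T-cells purified from buffy-coat PBMCs were stimulated with 1 µg/ml anti-CD3 and 1 µg/ml anti-CD28 plus compound (0.001–30 µM) for 16 h at 37 °C. CD69 measured by flow cytometry; DMSO set minimal, CD3/28 Dynabeads maximal activation; EC50 by variable-slope fit.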
(Flow cytometry measures light scatter and fluorescence of single cells or particles in a stream.)

The test system of another assay is CD4+ T-cells. The assay is described as above. It is filed as cell-based, human. Conditions: T-cell; purified human CD4+ and CD8+ T-cells, 1 µg/ml anti-CD3, 1 µg/ml anti-CD28, 16 hours, surface FACS; read-out: EC50 CD4+. An outline of the steps: as §1

With `CC(CO)Cn1c(=O)[nH]c(=O)c2c1nc(-c1ccc(Oc3ccc(OC(F)(F)F)cc3)c(F)c1)n2C` (centres unmarked) [Compound 152, 8-(3-fluoro-4-(4-(trifluoromethoxy)phenoxy)phenyl)-3-(3-hydroxy-2-methylpropyl)-7-methyl-3,7-dihydro-1H-purine-2,6-dione], the half-maximal effective concentration (EC50) in the assay on CD8+ T-cells and in the assay with CD4+ T-cells was 100 to 500 nM each time.

As for `CC(O)Cn1c(=O)[nH]c(=O)c2c1nc(-c1ccc(OCc3ccc(F)c(F)c3)c(F)c1)n2C` (centres unmarked) [Compound 92, 8-(4-((3,4-difluorobenzyl)oxy)-3-fluorophenyl)-3-(2-hydroxypropyl)-7-methyl-3,7-dihydro-1H-purine-2,6-dione], the EC50 in the assay with CD8+ T-cells and with CD4+ T-cells was 1000 to 5000 nM in each case.

As for `COc1cc(-c2nc3c(c(=O)[nH]c(=O)n3C[C@H](C)O)n2C)ccc1OCc1ccccc1` [Compound 61, (S)-8-(4-(benzyloxy)-3-methoxyphenyl)-3-(2-hydroxypropyl)-7-methyl-3,7-dihydro-1H-purine-2,6-dione], the concentration giving a half-maximal response (EC50) in the assay with CD8+ T-cells and with CD4+ T-cells was 500 to 1000 nM throughout.

On to `COc1cc(-c2nc3c(c(=O)[nH]c(=O)n3CC(C)O)n2C)ccc1OCc1ccc(OC(F)F)cc1` (centres unmarked) [Compound 85, 8-(4-((4-(difluoromethoxy)benzyl)oxy)-3-methoxyphenyl)-3-(2-hydroxypropyl)-7-methyl-3,7-dihydro-1H-purine-2,6-dione], for which the EC50 in the assay on CD8+ T-cells and in the assay on CD4+ T-cells was 100 to 500 nM in each case.

In the case of `CC(O)Cn1c(=O)[nH]c(=O)c2c1nc(-c1ccc(Oc3ccc(OC(F)(F)F)cc3F)cc1)n2C` (centres unmarked) [Compound 193, 8-(4-(2-fluoro-4-(trifluoromethoxy)phenoxy)phenyl)-3-(2-hydroxypropyl)-7-methyl-3,7-dihydro-1H-purine-2,6-dione], the concentration giving a half-maximal response (EC50) with CD8+ T-cells and in the assay with CD4+ T-cells was 1000 to 5000 nM throughout.

With `COc1ccc(COc2ccc(-c3nc4c(c(=O)[nH]c(=O)n4CC(C)O)n3C)cc2OC)cc1F` (centres unmarked) [Compound 126, 8-(4-((3-fluoro-4-methoxybenzyl)oxy)-3-methoxyphenyl)-3-(2-hydroxypropyl)-7-methyl-3,7-dihydro-1H-purine-2,6-dione], the EC50 lay in the range of 100 to 500 nM in the assay with CD8+ T-cells and 500 to 1000 nM in the assay on CD4+ T-cells.

As to `COc1cc(-c2nc3c(c(=O)[nH]c(=O)n3CC(C)O)n2C)ccc1OCc1ccccc1` (centres unmarked) [Compound 16, 8-(4-(benzyloxy)-3-methoxyphenyl)-3-(2-hydroxypropyl)-7-methyl-3,7-dihydro-1H-purine-2,6-dione], the concentration giving a half-maximal response (EC50) with CD8+ T-cells lay within 1000 to 5000 nM; in the assay on CD4+ T-cells it was 500 to 1000 nM.

`COc1cc(-c2nc3c(c(=O)[nH]c(=O)n3CC(O)C(F)F)n2C)ccc1OCc1ccc(OC(F)F)cc1` (centres unmarked) [Compound 83, 3-(3,3-difluoro-2-hydroxypropyl)-8-(4-((4-(difluoromethoxy)benzyl)oxy)-3-methoxyphenyl)-7-methyl-3,7-dihydro-1H-purine-2,6-dione]: the EC50 with CD8+ T-cells and in the assay with CD4+ T-cells was less than 100 nM each time.

In the case of `COc1cc(-c2nc3c(c(=O)[nH]c(=O)n3C[C@H](O)C(F)F)n2C)ccc1OCc1ccccc1` [Compound 53, (S)-8-(4-(benzyloxy)-3-methoxyphenyl)-3-(3,3-difluoro-2-hydroxypropyl)-7-methyl-3,7-dihydro-1H-purine-2,6-dione], the EC50 with CD8+ T-cells and with CD4+ T-cells was less than 100 nM throughout.

As for `Cc1ccc(COc2ccc(-c3nc4c(c(=O)[nH]c(=O)n4CC(C)O)n3C)cc2)cc1` (centres unmarked) [Compound 77, 3-(2-hydroxypropyl)-7-methyl-8-(4-((4-methylbenzyl)oxy)phenyl)-3,7-dihydro-1H-purine-2,6-dione], the figures for the EC50 with CD8+ T-cells and in the assay on CD4+ T-cells were 100 to 500 nM and 500 to 1000 nM, respectively.

Consider `Cn1c(-c2ccc(OCc3ccccc3)c(OC(F)(F)F)c2)nc2c1c(=O)[nH]c(=O)n2CC(O)C(F)(F)F` (centres unmarked) [Compound 119, 8-(4-(benzyloxy)-3-(trifluoromethoxy)phenyl)-7-methyl-3-(3,3,3-trifluoro-2-hydroxypropyl)-3,7-dihydro-1H-purine-2,6-dione], for which the EC50 in the assay with CD8+ T-cells and in the assay with CD4+ T-cells was less than 100 nM each time.

Regarding `Cn1c(-c2ccc(Oc3ccc(OC(F)(F)F)c(Cl)c3)c(F)c2)nc2c1c(=O)[nH]c(=O)n2CC(O)C(F)(F)F` (centres unmarked) [Compound 166, 8-(4-(3-chloro-4-(trifluoromethoxy)phenoxy)-3-fluorophenyl)-7-methyl-3-(3,3,3-trifluoro-2-hydroxypropyl)-3,7-dihydro-1H-purine-2,6-dione], the EC50 in the assay on CD8+ T-cells and in the assay on CD4+ T-cells was 100 to 500 nM throughout.

Take `COc1cc(-c2nc3c(c(=O)[nH]c(=O)n3CC(C)O)n2C)ccc1OCc1ccc(Cl)cc1` (centres unmarked) [Compound 88, 8-(4-((4-chlorobenzyl)oxy)-3-methoxyphenyl)-3-(2-hydroxypropyl)-7-methyl-3,7-dihydro-1H-purine-2,6-dione]: the EC50 with CD8+ T-cells and in the assay with CD4+ T-cells was 100 to 500 nM throughout.

Consider `COc1cc(-c2nc3c(c(=O)[nH]c(=O)n3CC(C)O)n2C)ccc1OCc1ccc(F)c(Cl)c1` (centres unmarked) [Compound 99, 8-(4-((3-chloro-4-fluorobenzyl)oxy)-3-methoxyphenyl)-3-(2-hydroxypropyl)-7-methyl-3,7-dihydro-1H-purine-2,6-dione], for which the EC50 in the assay on CD8+ T-cells and in the assay on CD4+ T-cells was 100 to 500 nM in each case.

As to `CC(O)Cn1c(=O)[nH]c(=O)c2c1nc(-c1ccc(OCCc3ccccc3)c(F)c1)n2C` (centres unmarked) [Compound 200, 8-(3-fluoro-4-phenethoxyphenyl)-3-(2-hydroxypropyl)-7-methyl-3,7-dihydro-1H-purine-2,6-dione], the EC50 in the assay on CD8+ T-cells was in the range of 100 to 500 nM; with CD4+ T-cells, 500 to 1000 nM.

Take `Cn1c(-c2ccc(OCc3ccc(C(F)F)cc3)c(F)c2)nc2c1c(=O)[nH]c(=O)n2CC(O)C(F)F` (centres unmarked) [Compound 62, 3-(3,3-difluoro-2-hydroxypropyl)-8-(4-((4-(difluoromethyl)benzyl)oxy)-3-fluorophenyl)-7-methyl-3,7-dihydro-1H-purine-2,6-dione]: the concentration for a half-maximal effect (EC50) with CD8+ T-cells was 100 to 500 nM; with CD4+ T-cells, 500 to 1000 nM.

Consider `COc1cc(-c2nc3c(c(=O)[nH]c(=O)n3CC(C)CO)n2C)ccc1OCc1ccccc1` (centres unmarked) [Compound 56, 8-(4-(benzyloxy)-3-methoxyphenyl)-3-(3-hydroxy-2-methylpropyl)-7-methyl-3,7-dihydro-1H-purine-2,6-dione], for which the EC50 in the assay with CD8+ T-cells and in the assay with CD4+ T-cells was 100 to 500 nM throughout.

As for `COc1ccc(COc2ccc(-c3nc4c(c(=O)[nH]c(=O)n4CC(C)O)n3C)cc2OC)cc1` (centres unmarked) [Compound 128, 3-(2-hydroxypropyl)-8-(3-methoxy-4-((4-methoxybenzyl)oxy)phenyl)-7-methyl-3,7-dihydro-1H-purine-2,6-dione], the EC50 in the assay with CD8+ T-cells and in the assay on CD4+ T-cells was 1000 to 5000 nM in each case.

Take `Cc1ccc(COc2ccc(-c3nc4c(c(=O)[nH]c(=O)n4CC(C)O)n3C)cc2OC(F)(F)F)cc1` (centres unmarked) [Compound 122, 3-(2-hydroxypropyl)-7-methyl-8-(4-((4-methylbenzyl)oxy)-3-(trifluoromethoxy)phenyl)-3,7-dihydro-1H-purine-2,6-dione]: the EC50 in the assay with CD8+ T-cells and with CD4+ T-cells was less than 100 nM in each case.

Take `COc1cc(-c2nc3c(c(=O)[nH]c(=O)n3CC(O)CO)n2C)ccc1OCc1ccc(C)cc1` (centres unmarked) [Compound 94, 3-(2,3-dihydroxypropyl)-8-(3-methoxy-4-((4-methylbenzyl)oxy)phenyl)-7-methyl-3,7-dihydro-1H-purine-2,6-dione]: the 50% effective concentration (EC50) in the assay with CD8+ T-cells and in the assay on CD4+ T-cells was 1000 to 5000 nM each time.

`CC(O)Cn1c(=O)[nH]c(=O)c2c1nc(-c1ccc(Oc3ccccc3)c(Cl)c1)n2C` (centres unmarked) [Compound 141, 8-(3-chloro-4-phenoxyphenyl)-3-(2-hydroxypropyl)-7-methyl-3,7-dihydro-1H-purine-2,6-dione]: the EC50 in the assay on CD8+ T-cells and in the assay on CD4+ T-cells was 1000 to 5000 nM each time.

Consider `COc1ccc(COc2ccc(-c3nc4c(c(=O)[nH]c(=O)n4CC(C)O)n3C)cc2F)cc1` (centres unmarked) [Compound 114, 8-(3-fluoro-4-((4-methoxybenzyl)oxy)phenyl)-3-(2-hydroxypropyl)-7-methyl-3,7-dihydro-1H-purine-2,6-dione], for which the EC50 with CD8+ T-cells and with CD4+ T-cells was 1000 to 5000 nM in each case.

For the compound `Cc1ccc(COc2ccc(-c3nc4c(c(=O)[nH]c(=O)n4CC(C)CO)n3C)cc2F)cc1` (centres unmarked) [Compound 97, 8-(3-fluoro-4-((4-methylbenzyl)oxy)phenyl)-3-(3-hydroxy-2-methylpropyl)-7-methyl-3,7-dihydro-1H-purine-2,6-dione], the concentration giving a half-maximal response (EC50) in the assay on CD8+ T-cells and in the assay on CD4+ T-cells was 100 to 500 nM throughout.

For the compound `CC(O)Cn1c(=O)[nH]c(=O)c2c1nc(-c1ccc(Oc3ccc(F)c(C(F)(F)F)c3)cc1)n2C` (centres unmarked) [Compound 195, 8-(4-(4-fluoro-3-(trifluoromethyl)phenoxy)phenyl)-3-(2-hydroxypropyl)-7-methyl-3,7-dihydro-1H-purine-2,6-dione], the 50% effective concentration (EC50) in the assay on CD8+ T-cells and with CD4+ T-cells was 1000 to 5000 nM each time.

Take `COc1cc(-c2nc3c(c(=O)[nH]c(=O)n3CC(O)C(F)(F)F)n2C)ccc1OCc1ccccc1` (centres unmarked) [Compound 57, 8-(4-(benzyloxy)-3-methoxyphenyl)-7-methyl-3-(3,3,3-trifluoro-2-hydroxypropyl)-3,7-dihydro-1H-purine-2,6-dione]: the results for the half-maximal effective concentration (EC50) in the assay on CD8+ T-cells and in the assay with CD4+ T-cells were 1000 to 5000 nM and 500 to 1000 nM, respectively.

(Values after patent EP4389749A1, “SUBSTITUTED 3,7-DIHYDRO-1H-PURINE-2,6-DIONES AND USE THEREOF” (invIOs GmbH, priority 2022, dated 2024).)
